Format in all cases: cell-based
Experiment [1] concerns the target T1, ER-α in MCF-7 cells harboring ER wild type (Homo sapiens, UniProt P03372).
T1 construct: evaluated in MCF-7 cells harboring ER wild type; endogenous in cells; host or cells: MCF-7
T1 sequence (P03372 1-595): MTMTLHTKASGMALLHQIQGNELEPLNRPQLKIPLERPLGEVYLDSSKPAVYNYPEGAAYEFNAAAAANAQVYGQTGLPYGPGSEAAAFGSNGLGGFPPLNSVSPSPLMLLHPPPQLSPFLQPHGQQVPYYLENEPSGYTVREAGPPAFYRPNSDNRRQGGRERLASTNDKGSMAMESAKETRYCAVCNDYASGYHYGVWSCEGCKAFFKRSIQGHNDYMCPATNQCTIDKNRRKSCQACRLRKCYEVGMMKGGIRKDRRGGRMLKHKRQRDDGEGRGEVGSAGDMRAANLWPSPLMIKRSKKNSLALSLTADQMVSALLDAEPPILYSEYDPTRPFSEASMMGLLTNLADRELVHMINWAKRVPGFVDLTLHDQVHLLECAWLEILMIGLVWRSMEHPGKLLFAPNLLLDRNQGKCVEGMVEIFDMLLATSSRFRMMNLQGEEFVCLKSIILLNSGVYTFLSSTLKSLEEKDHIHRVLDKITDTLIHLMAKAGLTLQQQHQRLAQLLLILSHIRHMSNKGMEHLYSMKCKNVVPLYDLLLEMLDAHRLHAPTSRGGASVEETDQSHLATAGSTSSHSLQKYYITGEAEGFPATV
Briefly: ER-α degradation (SERD) assay, MCF-7 wild type. Conditions: for % of ER-α remaining at 1 nM / DC50: MCF-7 Wt, 4 days; for % of ER-α remaining at 1 nM: western blot, vehicle control as 100%; for DC50: read-out: ER-α degradation assay Wt IC50. On the procedure:
(§1) Selective Estrogen Receptor Degradation (SERD) Assay:
(§2) The SERD activity for the test compounds was evaluated in MCF-7 cells harboring ER wild type, and MCF-7 cells harboring mutant ER (WT/D538G and WT/Y537S). Briefly, cells were plated in phenol red free RPMI1640 medium supplemented with 5% charcoal stripped fetal bovine serum. The seeding density was 40000 cells/well for MCF-7 WT and MCF-7 D538G and 50000 cells/well MCF-7 Y537S in a 48-well plate. Following overnight incubation, the cells were treated with varying concentrations of test compounds (final concentration: 1000 nM to 0.01 nM, 0.1% DMSO) for 4 days. The cells were lysed using PBS supplemented with 1 mM EDTA, 0.5% Triton X-100, 5 mM NaF, 6 M urea, and 1× Protease inhibitor cocktail. The lysate was analyzed for ER alpha protein using western blot. For the western blot, the cell lysate (12.5-40 μg total protein) was resolved on a 10% SDS PAGE and transferred onto a PVDF membrane. The blots were blocked using 5% skim milk powder in 0.1% PBS-T for 1 hour at room temperature, followed by co-incubation with rabbit anti-human β-actin antibody and rabbit anti-human ERα antibody for 2 hours at room temperature. The blots were subsequently probed with anti-rabbit IgG-HRP conjugate as secondary antibody for 1 hour at room temperature. The blots were developed by using West Pico Super Signal Chemiluminescence substrate and the bands were processed for densitometry analysis using Image Lab software (BioRad version 6.0.0). ERα band intensity was normalized to that housekeeping protein for respective samples. The % ER remaining was calculated by normalizing against the vehicle control (as 100%).
A general note: A western blot detects proteins with antibodies after separation by electrophoresis.

Experiment [2] concerns the target T2, ER-α in MCF-7 cells harboring mutant ER (WT/Y537S) (Homo sapiens, UniProt P03372, Y537S).
T2 construct: MCF-7 cells harboring mutant ER (WT/D538G and WT/Y537S); endogenous in cells; host or cells: MCF-7 Y537S (WT/Y537S)
T2 sequence (P03372 1-595 Y537S): T1 sequence (P03372 1-595) with Y537S
The experiment is described as follows: ER-α degradation (SERD) assay, MCF-7 Y537S. Particulars: for DC50: MCF-7 Y537S, 4 days, read-out: ER-α degradation assay Y537S IC50. As for the experimental part: as §1, §2

The target of experiment [3] is T3, ER-α in MCF-7 cells harboring mutant ER (WT/D538G) (Homo sapiens, UniProt P03372, D538G).
T3 construct: MCF-7 cells harboring mutant ER (WT/D538G and WT/Y537S); endogenous in cells; host or cells: MCF-7 D538G (WT/D538G)
T3 sequence (P03372 1-595 D538G): T1 sequence (P03372 1-595) with D538G
The experiment is described as follows: ER-α degradation (SERD) assay, MCF-7 D538G. Conditions: for DC50: MCF-7 D538G, 4 days, read-out: ER-α degradation assay D538G IC50. On the procedure: as §1, §2

Each structure is given as a SMILES string. Substitutions are numbered along the chain they refer to.

For `CC1=C(c2cc(F)cc(F)c2)[C@H](c2ccc(/C=C/CN3CC(CF)C3)cc2)Oc2cc(O)ccc21` [Formula Ia, (2S)-3-(3,5-difluorophenyl)-2-[4-[(E)-3-[3-(fluoromethyl)azetidin-1-yl]prop-1-enyl]phenyl]-4-methyl-2H-chromen-7-ol], in experiment [1], the “% of ER-α remaining at 1 nM” value is listed as 16.3%. Also, the DC50 is 0.3 nM in experiment [1], 19.6 nM in experiment [2] and 12.7 nM in experiment [3]. In experiment [1] (wild type), the “Potency of Formula Ia relative to Formula Ib in ER-α degradation” value is reported as “about 34 times”.

As to `CC1=C(c2cc(F)cc(F)c2)[C@@H](c2ccc(/C=C/CN3CC(CF)C3)cc2)Oc2cc(O)ccc21` [Formula Ib, (2R)-3-(3,5-difluorophenyl)-2-[4-[(E)-3-[3-(fluoromethyl)azetidin-1-yl]prop-1-enyl]phenyl]-4-methyl-2H-chromen-7-ol], the “% of ER-α remaining at 1 nM” value in experiment [1] was determined as 81.5%. For the same molecule, the DC50 in experiment [1] was 10.2 nM; in experiment [2] it was more than 1000 nM; in experiment [3], more than 1000 nM. In addition, the “ER-α degradation in mutated cell line (in words)” value in experiment [2] (Y537S) and in experiment [3] (D538G) was “no ER-α degradation” in each case.

The values above are taken from US11014915B2, “Selective estrogen receptor degrader” (SUN PHARMA ADVANCED RESEARCH COMPANY LIMITED, priority 2019, dated 2021).
